Test [1] relates to Homo sapiens. In words: Increase in P-gp-substrate 99mTc]sestaMIBI accumulation in tumor and heart of human with metastatic cancer at 150 mg, iv by imaging analysis. It is filed as functional.
Test [2] concerns Homo sapiens. In words: Increase in P-gp-substrate 99mTc]sestaMIBI accumulation in liver of human with metastatic cancer at 150 mg, iv by imaging analysis. It is filed as functional.

Consider `COc1cc2c(cc1OC)CN(CCc1ccc(NC(=O)c3cc(OC)c(OC)cc3NC(=O)c3cnc4ccccc4c3)cc1)CC2` [TARIQUIDAR], for which the Activity in the test with Homo sapiens [1] worked out at 36%; in the test with Homo sapiens [2], 128%.

Source of the values: ChEMBL document CHEMBL1154709, “Perspectives of P-glycoprotein modulating agents in oncology and neurodegenerative diseases: pharmaceutical, biological, and diagnostic potentials” (2010).
